Data reported in patent publication US20240360411A1, “METHODS AND COMPOSITIONS FOR INDUCING FETAL HEMOGLOBIN, MODULATING ERYTHROID CELL LINEAGES, AND PERTURBING MEGAKARYOCYTE LINEAGES” (FLAGSHIP PIONEERING INNOVATIONS VI, LLC, priority 2021, published 2024).

Assays:
C57Bl/6J mice = assay: Carboplatin induced thrombocytopenia model (CIT), CBC and bone marrow flow cytometry; type: in vivo, mouse
Text: Chemotherapy induced thrombocytopenia (CIT) was a major disease burden in cancer patients undergoing chemotherapy. CIT increases the risk of bleeding resulting in delay of chemotherapy and/or reduction in relative dose intensity (RDI), which has a major impact in overall outcomes to cancer treatment. Currently, there were no approved treatments besides platelet transfusions in severe CIT cases. Thrombopoietin (TPO) mimetics, such romiplostim, were being investigated as a possible new treatment to address CIT. Based on the ability to modulate megakaryocyte progenitors in vitro and healthy animals, murine models that replicate CIT were developed (Table 19.) To this end, the following chemotherapeutic compounds known to induced myelosuppression and thrombocytopenia in mouse and humans were selected to develop CIT models:
Carboplatin a cisplatin analog commonly used in the clinic to treat a diverse type of malignant tumors. Carboplatin works by cross-linking to DNA resulting in DNA damage and decreased tumor burden. In addition, carboplatin also leads to bone marrow myelosuppression including transient thrombocytopenia in both human and mice.
Healthy C57Bl/6J mice were treated with a single dose of carboplatin via intraperitoneal injection (60 or 100 mg/kg) (FIG. 16A). Complete blood count (CBC), specifically changes in platelet number were measured using a blood analyzer (Heska HT5) at baseline Day 0 (baseline), Day 9, Day 16 and Day 21. In addition, bone marrowwas harvested at 24 hrs, 48 hrs, 9 days and 21 days post-carboplatin injection to characterize changes in the hematopoietic stem cells compartment, and changes in megakaryocyte compartment. […] Analysis of the bone marrow hematopoietic compartments was performed using flow cytometry as described in Example 14.

sickle cell patient = sickle cell patient treated with hydroxyurea; Mundee et al.; cited from earlier work
[1] = single intraperitoneal dose, 60 or 100 mg/kg, day post-injection

Row | Structure (SMILES) | bone marrow hematopoietic compartments (early Mkps, mature megakaryocytes) (C57Bl/6J mice; flow cytometry 24 hrs, 48 hrs, 9 days, 21 days post-carboplatin injection, FIG. 17A, 17B) | tolerability (C57Bl/6J mice; single intraperitoneal dose, 60 or 100 mg/kg) | blood platelets (change in platelet number) (C57Bl/6J mice; single intraperitoneal dose, 60 or 100 mg/kg, FIG. 16B) | full recovery of platelet number (C57Bl/6J mice; [1]) [days] | nadir of blood platelets (C57Bl/6J mice; [1]) [days] | mean % F+ cells (sickle cell patient) | mean % HbF (sickle cell patient)
1 | N.N.O=C([O-])C1(C(=O)[O-])CCC1.[Pt+2] [carboplatin] | dynamic loss and recovery of distinct populations | tolerated the treatment | decrease of blood platelets in a dose dependent manner | ≤ 21 | 9 | – | –
2 | NC(=O)NO [hydroxyurea] | – | – | – | – | – | 54.1%±8.5% | 15.8%±2.0%
